Data: PubChem BioAssay AID1259408 (Genetic Toxicology Data Bank (GENE-TOX), 2018)
Calls of active or inactive are those of the source. No rule for the calls is given here.

System: GENE-TOX genotoxicity assays, various organisms and cells
Test: GENE-TOX mutagenicity studies
Settings: for call: Assay Type: In vivo carcinogenicity studies
[1] = Species/Cell Type: Drosophila melanogaster, Assay Type: Sex-linked recessive lethal gene mutation, Assay Code: SRLT, Evaluation Type: Evaluation A (Pre-1980)
[2] = Species/Cell Type: Bacillus subtilis (H17 vs M45T), Assay Type: Rec-assay, spot test, DNA effects (bacterial DNA repair), Assay Code: REXT, Evaluation Type: Evaluation A (Pre-1980)
[3] = Species/Cell Type: Salmonella typhimurium (one or more of the five standard strains: TA98, TA100, TA1535, TA1537, and TA1538), Assay Type: Histidine reverse gene mutation, Ames assay, Assay Code: SAL-, Evaluation Type: Evaluation A (Pre-1980)
[4] = Species/Cell Type: Human lymphocytes, Assay Type: Sister-chromatid exchange (SCE) in vitro, Assay Code: SCL+D, Dose Response: With dose response, Evaluation Type: Evaluation B (Post-1980)
[5] = Species/Cell Type: Human, Assay Type: Sister-chromatid exchange (SCE) in vitro, Assay Code: SC1+D, Dose Response: With dose response, Evaluation Type: Evaluation B (Post-1980)
[6] = Species/Cell Type: Human diploid fibroblasts, Assay Type: Unscheduled DNA synthesis (UDS) in vitro, DNA effects, Assay Code: UDH-, Evaluation Type: Evaluation A (Pre-1980)
[7] = Species/Cell Type: Saccharomyces cerevisiae, Assay Type: Mitotic recombination or gene conversion, Assay Code: YEH-, Evaluation Type: Evaluation A (Pre-1980)
[8] = Species/Cell Type: Drosophila melanogaster, Assay Type: Sex-linked recessive lethal gene mutation, Assay Code: SRL+, Evaluation Type: Evaluation A (Pre-1980)
[9] = Species/Cell Type: Nonhuman, Assay Code: CCG+, Evaluation Type: Evaluation A (Pre-1980)
[10] = Species/Cell Type: Salmonella typhimurium (one or more of the five standard strains: TA98, TA100, TA1535, TA1537, and TA1538), Assay Type: Histidine reverse gene mutation, Ames assay, Assay Code: SALT, Evaluation Type: Evaluation A (Pre-1980)
[11] = Species/Cell Type: Rabbit, Sex: Male, Assay Type: Sperm morphology, Assay Code: SPR+, Evaluation Type: Evaluation A (Pre-1980)
[12] = Species/Cell Type: Nonhuman, Assay Code: CCG-L, Evaluation Type: Evaluation A (Pre-1980)
[13] = Species/Cell Type: Escherichia coli polA (W3119 vs P3478), Assay Type: Rec-assay, DNA effects (bacterial DNA repair), Assay Code: RE1+, Evaluation Type: Evaluation A (Pre-1980)
[14] = Species/Cell Type: Salmonella typhimurium (one or more of the five standard strains: TA98, TA100, TA1535, TA1537, and TA1538), Assay Type: Histidine reverse gene mutation, Ames assay, Assay Code: SAL+, Evaluation Type: Evaluation A (Pre-1980)

In the case of Nc1ccc2c(c1)-c1ccccc1C2, the mutagenic call (Species/Cell Type: Fischer rat embryo (RLV/1706) cells, Assay Type: Cell transformation, viral enhanced, Assay Code: CTR-, Evaluation Type: Evaluation A (Pre-1980)) is reported as “inactive; negative”.

For COC(=O)/C=C(\C)CCCC(C)(Cl)CCCC(C)(C)Cl (stereo not given), the mutagenic call [1] was “no conclusion”.

In the case of O=S(=O)(O)c1ccc2c(N=Nc3ccc(S(=O)(=O)O)c4ccccc34)c(O)c(S(=O)(=O)O)cc2c1, the mutagenic call (Species/Cell Type: Bacillus subtilis (H17 vs M45), Assay Type: Rec-assay, spot test, DNA effects (bacterial DNA repair), Assay Code: REWT, Evaluation Type: Evaluation A (Pre-1980)) is reported as “no conclusion”, the mutagenic call [2] is reported as “no conclusion” and the mutagenic call (Species/Cell Type: Rodents, Sex: Male, Assay Type: Dominant lethal test, Assay Code: DLT-, Evaluation Type: Evaluation A (Pre-1980)) is reported as “inactive; negative”. The mutagenic call (Species/Cell Type: Saccharomyces cerevisiae, Assay Type: Mitotic recombination or gene conversion, Assay Code: YEC-, Evaluation Type: Evaluation A (Pre-1980)) was “inactive; negative”, the mutagenic call [3] was “inactive; negative” and the mutagenic call (Species/Cell Type: Syrian hamster embryo (SA7/SHE) cells, Assay Type: Cell transformation, viral enhanced, Assay Code: CT7-, Evaluation Type: Evaluation A (Pre-1980)) was “inactive; negative”.

With O=[As](=O)O[As](=O)=O the mutagenic call (Species/Cell Type: Bacillus subtilis (H17 vs M45), Assay Type: Rec-assay, spot test, DNA effects (bacterial DNA repair), Assay Code: REW+, Evaluation Type: Evaluation A (Pre-1980)) was “active; positive” and the mutagenic call (Species/Cell Type: Nonhuman, Assay Type: Sister-chromatid exchange (SCE) in vitro, Assay Code: SC2+, Evaluation Type: Evaluation B (Post-1980)) was “active; positive”.

For O=C(Nc1ccc([N+](=O)[O-])cc1Cl)c1cc(Cl)ccc1O, the mutagenic call [4] was “active; positive”, the mutagenic call (Species/Cell Type: Human lymphocytes, Assay Type: Sister-chromatid exchange (SCE) in vivo, Assay Code: SCY+, Evaluation Type: Evaluation B (Post-1980)) was “active; positive” and the mutagenic call [5] was “active; positive”.

CC(=O)Nc1cc2c(cc1O)-c1ccccc1C2 was tested, and the mutagenic call [1] was “no conclusion”, the mutagenic call (Species/Cell Type: Escherichia coli polA (W3110 vs P3478), Assay Type: Rec-assay, DNA effects (bacterial DNA repair), Assay Code: RE2-, Evaluation Type: Evaluation A (Pre-1980)) was “inactive; negative” and the mutagenic call (Species/Cell Type: Escherichia coli polA (W3119 vs P3478), Assay Type: Rec-assay, DNA effects (bacterial DNA repair), Assay Code: RE1T, Evaluation Type: Evaluation A (Pre-1980)) was “no conclusion”. For the same molecule, the mutagenic call [6] was “inactive; negative”, the mutagenic call [7] was “inactive; negative” and the mutagenic call [3] was “inactive; negative”.

For C=CN(C)N=O, the mutagenic call [8] was “active; positive” and the call [9] was “active; positive”.

In the case of Cc1cc2cc3cc(C)c(N)cc3nc2cc1N, the mutagenic call (Species/Cell Type: Mammalian cell culture, nonhuman, Assay Type: Micronucleus test in vitro, chromosome aberrations, Assay Code: MN&+, Evaluation Type: Evaluation A (Pre-1980)) is reported as “active; positive” and the mutagenic call (Species/Cell Type: Saccharomyces cerevisiae, Assay Type: Mitotic recombination or gene conversion, Assay Code: YEC+, Evaluation Type: Evaluation A (Pre-1980)) is reported as “active; positive”.

With COc1ccc(/C=C/Cl)cc1 the mutagenic call [4] was “active; positive” and the mutagenic call [5] was “active; positive”.

COc1cc2cc3c4cc(OC)c(OC)cc4cc[n+]3c(C)c2cc1OC (tested in a mixture with another compound) was tested, and the mutagenic call [10] was “no conclusion”.

With C[C@]12CCC3=C4CCC(=O)C=C4CC[C@H]3[C@@H]1CC[C@@]2(O)CC#N the mutagenic call [11] was “active; positive”.

In the case of O=C1OC(O)C(C(Cl)Cl)=C1Cl (stereo not given), the mutagenic call (Species/Cell Type: Mammalian polychromatic erythrocytes, Assay Type: Micronucleus test, chromosome aberrations, Assay Code: MNT-, Evaluation Type: Evaluation B (Post-1980)) is reported as “inactive; negative”.

In the case of [Cl][Ti]([Cl])[Cl], the mutagenic call (Species/Cell Type: Nonhuman, Assay Type: Sister-chromatid exchange (SCE) in vitro, Assay Code: SC2-, Evaluation Type: Evaluation B (Post-1980)) is reported as “inactive; negative”.

CN(C)P(=O)(N(C)C)N(C)C was tested, and the mutagenic call [8] was “active; positive”, the mutagenic call (Species/Cell Type: Drosophila melanogaster, Sex: Male, Assay Type: Heritable translocation test, chromosome aberrations, Assay Code: DHT+, Evaluation Type: Evaluation A (Pre-1980)) was “active; positive” and the mutagenic call (Species/Cell Type: Mammalian polychromatic erythrocytes, Assay Type: Micronucleus test, chromosome aberrations, Assay Code: MNT+, Evaluation Type: Evaluation A (Pre-1980)) was “active; positive”. The mutagenic call (Species/Cell Type: Mouse, Sex: Male, Assay Type: Sperm morphology, Assay Code: SPI+, Evaluation Type: Evaluation A (Pre-1980)) was “active; positive”, the call [9] was “active; positive” and the mutagenic call (Species/Cell Type: Nonhuman, Assay Type: Sister-chromatid exchange (SCE) in vitro, Assay Code: SC2+D*, Activation: With metabolic activation, Dose Response: With dose response, Evaluation Type: Evaluation B (Post-1980)) was “active; positive”. The mutagenic call [11] was “active; positive”, the mutagenic call (Species/Cell Type: Rodents, Sex: Male, Assay Type: Dominant lethal test, Assay Code: DLT+, Evaluation Type: Evaluation A (Pre-1980)) was “active; positive” and the mutagenic call (Species/Cell Type: Tradescantia species, Assay Type: Gene mutation, Assay Code: TRM+D, Dose Response: With dose response, Evaluation Type: Evaluation A (Pre-1980)) was “active; positive”.

For Nc1cccc2c1C(=O)c1c(NCCNCCO)ccc(NCCNCCO)c1C2=O, the mutagenic call (Species/Cell Type: Nonhuman, Assay Type: Sister-chromatid exchange (SCE) in vitro, Assay Code: SC2+D, Dose Response: With dose response, Evaluation Type: Evaluation B (Post-1980)) was “active; positive”.

For O=[N+]([O-])c1cnc2ccccc2c1, the mutagenic call (Species/Cell Type: Neurospora crassa, Assay Type: Aneuploidy, chromosome aberrations, Assay Code: NEN-, Evaluation Type: Evaluation A (Pre-1980)) was “inactive; negative”.

In the case of O=C(O)CC[N+](=O)[O-], the mutagenic call (Species/Cell Type: Fischer rat embryo (RLV/1706) cells, Assay Type: Cell transformation, viral enhanced, Assay Code: CTR+, Evaluation Type: Evaluation A (Pre-1980)) is reported as “active; positive” and the call [12] is reported as “inactive; negative”.

With CCCC=O the mutagenic call (Species/Cell Type: Human lymphocytes, Assay Type: Sister-chromatid exchange (SCE) in vitro, Assay Code: SCL+, Evaluation Type: Evaluation B (Post-1980)) was “active; positive” and the mutagenic call (Species/Cell Type: Human, Assay Type: Sister-chromatid exchange (SCE) in vitro, Assay Code: SC1+, Evaluation Type: Evaluation B (Post-1980)) was “active; positive”.

In the case of O=C1OC(c2ccc(O)cc2)(c2ccc(O)cc2)c2ccccc21, the mutagenic call (Species/Cell Type: Bacillus subtilis (H17 vs M45), Assay Type: Rec-assay, spot test, DNA effects (bacterial DNA repair), Assay Code: REW-, Evaluation Type: Evaluation A (Pre-1980)) is reported as “inactive; negative” and the mutagenic call [2] is reported as “no conclusion”.

In the case of ClC1=C(Cl)[C@]2(Cl)[C@@H]3[C@H]4C[C@H]([C@@H]5O[C@H]45)[C@@H]3[C@@]1(Cl)C2(Cl)Cl, the mutagenic call [1] is reported as “no conclusion”, the mutagenic call (Species/Cell Type: Hordeum vulgare (barley), Assay Type: Chromosome aberrations, Assay Code: HOCT, Evaluation Type: Evaluation A (Pre-1980)) is reported as “no conclusion” and the mutagenic call [6] is reported as “inactive; negative”. For the same molecule, the call [12] was “inactive; negative”, the mutagenic call [7] was “inactive; negative” and the mutagenic call [3] was “inactive; negative”. The mutagenic call (Species/Cell Type: Vicia faba, Assay Type: Chromosome aberrations, Assay Code: VIC+D, Dose Response: With dose response, Evaluation Type: Evaluation A (Pre-1980)) was “active; positive”.

With OCC1CO1 (stereo not given) the mutagenic call [13] was “active; positive”, the mutagenic call [6] was “inactive; negative” and the mutagenic call [4] was “active; positive”. For the same molecule, the mutagenic call [5] was “active; positive”, the mutagenic call (Species/Cell Type: Neurospora crassa, Assay Type: Reverse gene mutation, Assay Code: NER+, Evaluation Type: Evaluation A (Pre-1980)) was “active; positive” and the mutagenic call (Species/Cell Type: Saccharomyces cerevisiae, Assay Type: Mitotic recombination or gene conversion, Assay Code: YEH+, Evaluation Type: Evaluation A (Pre-1980)) was “active; positive”. For the same molecule, the mutagenic call [14] was “active; positive”, the mutagenic call (Species/Cell Type: Schizosaccharomyces pombe, Assay Type: Reverse gene mutation, Assay Code: YEZ+, Evaluation Type: Evaluation A (Pre-1980)) was “active; positive” and the mutagenic call (Species/Cell Type: Syrian hamster embryo (SHE) cells, Assay Type: Cell transformation, clonal assay, Assay Code: CTCT, Evaluation Type: Evaluation A (Pre-1980)) was “no conclusion”.

With O=S(O)CO the mutagenic call (Species/Cell Type: Drosophila melanogaster, Sex: Male, Assay Type: Heritable translocation test, chromosome aberrations, Assay Code: DHTT, Evaluation Type: Evaluation A (Pre-1980)) was “no conclusion”.

For CC1=NN(c2ccc([N+](=O)[O-])cc2)C(=O)C1[N+](=O)[O-] (stereo not given), the mutagenic call [13] was “active; positive” and the mutagenic call [14] was “active; positive”.

COc1ccc2c3c4n(c2c1)[C@@H](C=C(C)C)OOC(C)(C)C[C@@H]4N1C(=O)[C@@H]2CCCN2C(=O)[C@]1(O)[C@H]3O was tested, and the mutagenic call [7] was “inactive; negative” and the mutagenic call [10] was “no conclusion”.

Oc1cc2c3ccccc3cc3ccc4cccc1c4c32 was tested, and the mutagenic call (Species/Cell Type: Chinese hamster lung (V79) cells, Assay Type: Forward gene mutation at the HPRT or ouabain locus, Assay Code: V79-, Evaluation Type: Evaluation A (Pre-1980)) was “inactive; negative”, the call (Species/Cell Type: Nonhuman, Assay Code: CCGT, Evaluation Type: Evaluation A (Pre-1980)) was “no conclusion” and the mutagenic call [14] was “active; positive”.
